Several values for one entry are separate records, joined by “and”; a condition that tells them apart may be missing. Equal entries are not always repeated.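 These data come from cells grown in 96-well plates and exposed to compound for 48 hours at five concentrations. The concentration for 50% growth inhibition is given as GI50. TGI marks complete inhibition of growth.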
Tests used:
Experiment in all cases: NCI-60 cell line screen, 48 h
786-0 renal = system: 786-0 renal
EKVX NSCLC = system: EKVX NSCLC
HCC-2998 colon = system: HCC-2998 colon
HOP-62 NSCLC = system: HOP-62 NSCLC
MDA-MB-435 = system: MDA-MB-435
OVCAR-5 ovarian = system: OVCAR-5 ovarian
SF-539 CNS = system: SF-539 CNS
SNB-19 CNS = system: SNB-19 CNS
SNB-75 CNS = system: SNB-75 CNS
SR leukemia = system: SR leukemia

Row | SMILES | GI50 (786-0 renal) [µM] | TGI (786-0 renal) | GI50 (EKVX NSCLC) [µM] | TGI (EKVX NSCLC) | GI50 (HCC-2998 colon) [µM] | TGI (HCC-2998 colon) | GI50 (HOP-62 NSCLC) [µM] | TGI (HOP-62 NSCLC) | GI50 (MDA-MB-435) [µM] | TGI (MDA-MB-435) [µM] | GI50 (OVCAR-5 ovarian) [µM] | TGI (OVCAR-5 ovarian) | GI50 (SF-539 CNS) | TGI (SF-539 CNS) | GI50 (SNB-19 CNS) [µM] | TGI (SNB-19 CNS) | GI50 (SNB-75 CNS) [µM] | TGI (SNB-75 CNS) | GI50 (SR leukemia) [µM] | TGI (SR leukemia)
1 | O=c1[nH]c(-c2cccc(F)c2)cc2cc(F)ccc12 | 2.87 | > 100 µM | 2.34 | > 100 µM | 1.91 | > 100 µM | 0.495 | > 100 µM | 0.0279 | 0.0797 | 1.74 | > 100 µM | 0.272 µM | 1.7 µM | 0.664 | > 100 µM | 0.211 | > 100 µM | 0.0712 | > 100 µM
2 | O=C(Nc1ncc(Cc2cccc(C(F)(F)F)c2)s1)c1ccc2c(c1)OCCO2 | 0.576 | > 100 µM | 0.602 | > 100 µM | 0.337 | 17.5 µM | 0.615 | > 40.9 µM | 0.0352 | 0.172 | 0.617 | > 100 µM | 0.251 µM | 0.916 µM | 0.506 | > 68.4 µM | 0.185 | 7.17 µM | 0.21 | > 100 µM
3 | CCCCNCCCNCCCNC(=O)c1csc(-c2csc(CCNC(=O)C(NC(=O)C(C)C(O)C(C)NC(=O)C(NC(=O)c3nc(C(CC(N)=O)NCC(N)C(N)=O)nc(N)c3C)C(OC3OC(CO)C(O)C(O)C3OC3OC(CO)C(O)C(OC(N)=O)C3O)c3cnc[nH]3)C(C)O)n2)n1 (configuration not stated) | 1.46 | 50 µM and 5.24 µM | > 50 | > 50 µM and 61.8 µM | 15.9 | 50 µM and > 100 µM | 0.109 | 8.65 µM |  | 50 | 5.86 | 50 µM and > 44.5 µM | 0.0449 µM | 0.357 µM and 0.235 µM |  | 50 µM and > 65.7 µM | 0.0257 | 0.716 µM and 3.37 µM | 7.28 | 50 µM and > 100 µM
4 | NC(=S)N/N=C/c1ncccc1O | 0.348 | 20.3 µM and 8.34 µM | 8.58 | > 92.8 µM and 28.1 µM | 3.08 | > 42.3 µM and 166 µM | 2.6 | 11.1 µM and 16.7 µM | 1.33 | > 471 | 5.21 | > 82.4 µM and 154 µM | 0.567 µM and 0.242 µM | 2.69 µM and 1.26 µM | 3.61 | 295 µM | 2.16 | > 51.9 µM and 60.6 µM | 0.585 | 28.8 µM and > 148 µM
5 | COc1ccc(CNc2c3ccccc3nc3ccccc23)cc1F | 3.6 | 13.7 µM | 3.59 | 14.5 µM | 2.07 | 5.27 µM | 4.2 | 20.5 µM | 2.9 |  | 3.52 | 13.5 µM | 3.04 µM | 10.7 µM | 3.41 | 14.7 µM | 3.21 | 15.2 µM | 2.49 | 9.37 µM
6 | Cc1cc(C(=O)CSC(=S)SC(C)(C)C)ccc1Cl |  | 74.4 µM |  | 56.8 µM |  | 30.3 µM |  | 37.4 µM |  | 91.1 |  | 43.9 µM |  | 35.7 µM |  | 32 µM |  | 54.3 µM |  | 46.9 µM
7 | COC(=O)/C=C/c1cc(OC(C)=O)c2c(c1)C(C(=O)OC)C(c1ccc(OC(C)=O)c(OC(C)=O)c1)O2 (configuration not stated) | 0.488 | > 56.8 µM | 2.28 | > 86 µM | 0.461 | 48.4 µM | 0.438 | > 100 µM | 0.0219 | 0.0606 | 3.42 | > 100 µM | 0.0674 µM | 2.41 µM | 0.131 | > 100 µM | 0.0382 | 56.7 µM | 0.0303 | 30.4 µM
8 | COc1cc2c(cc1OCCCN1CCN(CCCOc3cc4c(cc3OC)C(=O)N3CC(F)(F)C[C@H]3C=N4)CC1)N=C[C@@H]1CC(F)(F)CN1C2=O | 3.17 | 10.8 µM | 29.1 | > 100 µM | 5.4 | 19.4 µM | 3.17 | 6.07 µM | 2.94 | 11.1 | 3.83 | 11.4 µM | 3.05 µM | 9.15 µM | 4.08 | 17.5 µM | 5.52 | 21.1 µM | 0.882 | 11.4 µM
9 | COc1c(C)c(OCC=C(C)C)cc(CO)c1CO |  | > 100 µM |  | > 100 µM |  | > 100 µM |  | > 100 µM |  | > 100 |  | > 100 µM |  | > 100 µM |  | > 100 µM |  | > 100 µM |  | > 100 µM

From PubChem BioAssay (NCI)
